This note sets out measurements from ChEMBL document CHEMBL1127680, “Specific inhibitors of ileal bile acid transport” (J Med Chem, 1994).

Holding throughout (format): functional
Assay [1] relates to Rattus norvegicus. Briefly: The compound was evaluated for the percentage inhibition of ileal taurocholate transport, in anesthetized wistar rats at 60 min.
Assay [2] has as its system Rattus norvegicus. Briefly: The compound was evaluated for the percentage inhibition of ileal taurocholate transport, in anesthetized wistar rats at 30 min.
The species named for assay [3] is Oryctolagus cuniculus. Briefly: The compound was evaluated for the inhibition of Na+-dependent [3H]taurocholate uptake into ileal brush border membrane vesicles in rabbit; by 75%.
Assay [4] is filed under the species Oryctolagus cuniculus. The experiment in a line: The compound was evaluated for the inhibition of Na+ dependent [3H]taurocholate uptake into ileal brush border membrane vesicles in rabbit; by 25%.
Assay [5] is filed under the species Oryctolagus cuniculus. Briefly: The compound was evaluated for the inhibition of Na+-dependent [3H]taurocholate uptake into ileal brush border membrane vesicles in rabbit; by 50%.
In assay [6] the test system is Rattus norvegicus. Briefly: The compound was evaluated for the percentage inhibition of ileal taurocholate transport; in anesthetized wistar rats at 12 min.
The species entered for assay [7] is Oryctolagus cuniculus. Briefly: The compound was evaluated for the inhibition of Na+-dependent [3H]taurocholate uptake into ileal brush border membrane vesicles in rabbit, by 50%.
The species named for assay [8] is Oryctolagus cuniculus. The experiment in a line: The compound was evaluated for the inhibition of Na+-dependent [3H]taurocholate uptake into ileal brush border membrane vesicles in rabbit, by 75%.
The species named for assay [9] is Oryctolagus cuniculus. The experiment in a line: The compound was evaluated for the inhibition of Na+-dependent [3H]taurocholate uptake into ileal brush border membrane vesicles in rabbit, by 25%.
Assay [10] concerns Rattus norvegicus. Briefly: The compound was evaluated for the percentage inhibition of ileal taurocholate transport, in anesthetized wistar rats at 12 min.

As for `CC(CCC(=O)NCCO[C@H]1CC[C@@]2(C)[C@@H](C1)C[C@@H](O)[C@@H]1[C@@H]2C[C@H](O)[C@]2(C)C(C(C)CCC(=O)O)CC[C@@H]12)C1CC[C@H]2[C@@H]3[C@H](O)C[C@@H]4C[C@H](O)CC[C@]4(C)[C@H]3C[C@H](O)[C@]12C` (stereo partly specified), the Inhibition (usually the share of the control response that was lost under treatment) in the assay on Rattus norvegicus [1] was determined as 18%; in the assay on Rattus norvegicus [2], 23%; in the assay with Rattus norvegicus [6], 23%. The 75% effect level in the assay filed under Oryctolagus cuniculus [3] (IC75) was put at 57 µM. Moreover, the IC25 (usually the concentration needed for an effect of 25%) in the assay filed under Oryctolagus cuniculus [4] was 20 µM. The IC50 (as a rule, the concentration that inhibits the measured activity by half) in the assay listed under Oryctolagus cuniculus [5] stood at 36 µM.
`CC(CCC(=O)O)C1CC[C@H]2[C@@H]3[C@H](O)C[C@@H]4C[C@@H](OCCNC(=O)CCC(C)C5CC[C@H]6[C@@H]7[C@H](O)C[C@@H]8C[C@H](OC(c9ccccc9)c9ccccc9)CC[C@]8(C)[C@H]7C[C@H](O)[C@]56C)CC[C@]4(C)[C@H]3C[C@H](O)[C@]12C` (stereo partly specified): the IC50 in the assay filed under Oryctolagus cuniculus [7] is > 250 µM. The IC75 (as a rule, the point of the concentration-response curve where the effect stands at 75%) in the assay listed under Oryctolagus cuniculus [8] was > 250 µM. Moreover, in the assay listed under Oryctolagus cuniculus [9], the IC25 came to 125 µM.
On to `CC(CCC(=O)O)C1CC[C@H]2[C@@H]3[C@H](O)C[C@@H]4C[C@@H](OCCNC(=O)CCC(=O)NCCCNC(=O)CCC(C)C5CC[C@H]6[C@@H]7[C@H](O)C[C@@H]8C[C@H](OC(c9ccccc9)c9ccccc9)CC[C@]8(C)[C@H]7C[C@H](O)[C@]56C)CC[C@]4(C)[C@H]3C[C@H](O)[C@]12C` (stereo partly specified), for which the IC50 in the assay filed under Oryctolagus cuniculus [7] amounted to 19 µM. Further, the Inhibition turned out to be 10% with Rattus norvegicus [1], 16% in the assay on Rattus norvegicus [2] and 26% in the assay with Rattus norvegicus [10]. This compound yielded an IC75 in the assay listed under Oryctolagus cuniculus [8] of 30 µM. Further, it took 9 µM to reach the 25% level in the assay listed under Oryctolagus cuniculus [9] (IC25).
On to `CC(CCC(=O)O)C1CC[C@H]2[C@@H]3[C@H](O)C[C@@H]4C[C@@H](NC(=O)CCC(C)C5CC[C@H]6[C@@H]7CC[C@@H]8C[C@H](O)CC[C@]8(C)[C@H]7CC[C@]56C)CC[C@]4(C)[C@H]3C[C@H](O)[C@]12C` (stereo partly specified), for which, in the assay listed under Oryctolagus cuniculus [7], the IC50 is > 250 µM. In the assay listed under Oryctolagus cuniculus [8], the IC75 was > 250 µM. Besides, the IC25 in the assay filed under Oryctolagus cuniculus [9] turned out to be 176 µM.
Compound `CC(CCC(=O)N[C@H]1CC[C@@]2(C)[C@@H](C1)C[C@@H](O)[C@@H]1[C@@H]2C[C@H](O)[C@]2(C)C(C(C)CCC(=O)O)CC[C@@H]12)C1CC[C@H]2[C@@H]3[C@H](O)C[C@@H]4C[C@H](O)CC[C@]4(C)[C@H]3C[C@H](O)[C@]12C` (stereo partly specified) had an IC50 in the assay listed under Oryctolagus cuniculus [7] of 48 µM. Besides, the Inhibition with Rattus norvegicus [1] is recorded as 54%; with Rattus norvegicus [2] it was 59%; in the assay with Rattus norvegicus [10], 51%. Also, the IC75 in the assay listed under Oryctolagus cuniculus [8] came out at 84 µM. This compound registered an IC25 in the assay listed under Oryctolagus cuniculus [9] of 24 µM.
In the case of `CC(CCC(=O)O)C1CC[C@H]2[C@@H]3[C@H](O)C[C@@H]4C[C@@H](OCCNC(=O)CCC(C)C5CC[C@H]6[C@@H]7CC[C@@H]8C[C@H](O)CC[C@]8(C)[C@H]7CC[C@]56C)CC[C@]4(C)[C@H]3C[C@H](O)[C@]12C` (stereo partly specified), in the assay listed under Oryctolagus cuniculus [7], the IC50 was > 250 µM. Besides, in the assay filed under Oryctolagus cuniculus [8], the IC75 was > 250 µM. In the assay listed under Oryctolagus cuniculus [9], this compound had an IC25 of 154 µM.
In turn, `C[C@H](CCC(=O)O)[C@H]1CC[C@H]2[C@@H]3[C@H](O)C[C@@H]4C[C@H](O)CC[C@]4(C)[C@H]3C[C@H](O)[C@]12C` yielded an IC75 in the assay filed under Oryctolagus cuniculus [8] of 152 µM. This compound showed an IC25 in the assay filed under Oryctolagus cuniculus [9] of 40 µM.
The matching figures for `C[C@H](CCC(=O)NCCS(=O)(=O)O)[C@H]1CC[C@H]2[C@@H]3[C@H](O)C[C@@H]4C[C@H](O)CC[C@]4(C)[C@H]3CC[C@]12C`: 61 µM and 13 µM.
